Results taken from ChEMBL document CHEMBL1909046, “DrugMatrix in vitro pharmacology data”.

Experiments:
[1] = DRUGMATRIX: Purinergic P2X radioligand binding (ligand: [3H] alpha, beta-Methylene-ATP); format: cell membranes, Oryctolagus cuniculus, New Zealand albino, Urinary bladder, Membrane; details: Not Active = under 50% inhibition at 10 µM
[2] = DRUGMATRIX: ATPase, Na+/K+ enzyme inhibition (substrate: ATP); format: tissue-based, Sus scrofa, Heart; details: Not Active = under 50% inhibition at 10 µM
Substance-P receptor = Substance-P receptor (Homo sapiens, UniProt P25103); format: cell membranes, CHO, Membrane; details: cho; also: in other assays of this panel Not Active means under 50% inhibition at 10 µM
Substance-P receptor, sequence (P25103 whole entry): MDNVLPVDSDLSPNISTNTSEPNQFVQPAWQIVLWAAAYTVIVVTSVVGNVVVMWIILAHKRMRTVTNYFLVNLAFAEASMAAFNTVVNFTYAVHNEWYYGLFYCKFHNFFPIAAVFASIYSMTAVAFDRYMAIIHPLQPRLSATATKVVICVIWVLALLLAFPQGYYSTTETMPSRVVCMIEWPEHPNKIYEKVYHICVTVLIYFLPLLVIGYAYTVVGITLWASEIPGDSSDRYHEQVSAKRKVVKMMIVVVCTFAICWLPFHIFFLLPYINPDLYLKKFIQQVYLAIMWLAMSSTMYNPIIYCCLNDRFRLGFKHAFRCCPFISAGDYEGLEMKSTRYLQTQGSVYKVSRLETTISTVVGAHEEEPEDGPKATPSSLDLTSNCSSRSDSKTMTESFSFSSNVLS

Acetylcholinesterase = Acetylcholinesterase (Homo sapiens, UniProt P22303); assay: DRUGMATRIX: Acetylcholinesterase enzyme inhibition (substrate: acetylthiocholine); format: cell-based, HEK293; details: hek293; Not Active = under 50% inhibition at 10 µM
Acetylcholinesterase, sequence (P22303 whole entry): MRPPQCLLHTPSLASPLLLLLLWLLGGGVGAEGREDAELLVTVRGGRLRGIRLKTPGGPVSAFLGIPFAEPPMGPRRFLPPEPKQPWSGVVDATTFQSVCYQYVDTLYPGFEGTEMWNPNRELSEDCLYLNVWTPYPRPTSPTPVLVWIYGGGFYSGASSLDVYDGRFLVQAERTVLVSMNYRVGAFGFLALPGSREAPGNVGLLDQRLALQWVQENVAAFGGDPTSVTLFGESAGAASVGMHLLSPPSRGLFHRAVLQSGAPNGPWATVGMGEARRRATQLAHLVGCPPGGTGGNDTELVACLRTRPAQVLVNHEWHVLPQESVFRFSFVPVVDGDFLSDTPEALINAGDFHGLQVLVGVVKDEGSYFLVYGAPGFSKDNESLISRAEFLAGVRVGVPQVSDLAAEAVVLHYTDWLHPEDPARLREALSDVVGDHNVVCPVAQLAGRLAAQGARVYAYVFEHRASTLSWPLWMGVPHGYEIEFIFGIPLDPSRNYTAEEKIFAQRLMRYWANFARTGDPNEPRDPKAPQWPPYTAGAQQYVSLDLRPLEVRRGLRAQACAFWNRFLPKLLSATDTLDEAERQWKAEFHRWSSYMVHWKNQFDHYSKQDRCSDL

[3] = DRUGMATRIX: Interleukin IL-1 radioligand binding (ligand: [125I] interleukin 1beta); format: cell membranes, Membrane; details: nih3t3; Not Active = under 50% inhibition at 10 µM
Melanocortin receptor 5 = Melanocortin receptor 5 (Homo sapiens, UniProt P33032); format: cell membranes, HEK293, Membrane; details: hek293; also: in other assays of this panel Not Active means under 50% inhibition at 10 µM
Melanocortin receptor 5, sequence (P33032 whole entry): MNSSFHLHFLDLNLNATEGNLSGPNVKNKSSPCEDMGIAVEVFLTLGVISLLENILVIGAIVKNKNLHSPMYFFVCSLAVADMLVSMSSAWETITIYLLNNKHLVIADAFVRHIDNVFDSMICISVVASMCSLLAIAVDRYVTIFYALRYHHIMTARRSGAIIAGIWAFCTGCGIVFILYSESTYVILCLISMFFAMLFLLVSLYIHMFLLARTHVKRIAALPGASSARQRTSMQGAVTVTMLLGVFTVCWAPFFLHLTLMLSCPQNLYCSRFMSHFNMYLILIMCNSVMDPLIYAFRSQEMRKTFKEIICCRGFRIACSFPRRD

Cathepsin G = target: T1, Cathepsin G (Homo sapiens, UniProt P08311); format: tissue-based; details: neutrophil;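 also: inhibition of Cathepsin G enzyme activity, tested on an AMC-conjugated peptide substrate; in other assays of this panel Not Active means under 50% inhibition at 10 µM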
T1 sequence (P08311 whole entry): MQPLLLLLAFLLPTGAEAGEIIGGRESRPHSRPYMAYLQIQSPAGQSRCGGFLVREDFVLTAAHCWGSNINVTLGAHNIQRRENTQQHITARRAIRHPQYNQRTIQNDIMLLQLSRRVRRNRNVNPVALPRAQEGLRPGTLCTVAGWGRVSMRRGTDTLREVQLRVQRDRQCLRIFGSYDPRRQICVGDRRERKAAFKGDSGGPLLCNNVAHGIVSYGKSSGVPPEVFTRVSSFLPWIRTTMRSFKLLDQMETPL

[4] = target: T2, Muscarinic acetylcholine receptor M2 (Homo sapiens, UniProt P08172); format: cell membranes, CHO-K1, Membrane; details: cho-k1; also: in other assays of this panel Not Active means under 50% inhibition at 10 µM
T2 sequence (P08172 whole entry): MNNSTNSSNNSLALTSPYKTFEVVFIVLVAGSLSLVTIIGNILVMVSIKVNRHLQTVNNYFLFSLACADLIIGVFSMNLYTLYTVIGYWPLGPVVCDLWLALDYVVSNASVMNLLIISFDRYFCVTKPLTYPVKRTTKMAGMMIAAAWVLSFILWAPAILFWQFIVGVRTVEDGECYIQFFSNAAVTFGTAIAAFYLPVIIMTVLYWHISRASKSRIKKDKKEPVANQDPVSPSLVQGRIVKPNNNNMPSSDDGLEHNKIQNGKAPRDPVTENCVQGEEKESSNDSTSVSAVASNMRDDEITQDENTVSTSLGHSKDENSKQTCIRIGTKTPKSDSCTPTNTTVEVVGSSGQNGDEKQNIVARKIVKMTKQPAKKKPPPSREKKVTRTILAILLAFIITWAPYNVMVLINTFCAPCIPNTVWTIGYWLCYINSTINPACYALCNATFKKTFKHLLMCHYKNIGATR

Adenosine receptor A1 = target: T3, Adenosine receptor A1 (Homo sapiens, UniProt P30542); format: cell membranes, CHO, Membrane; details: cho
T3 sequence (P30542 whole entry): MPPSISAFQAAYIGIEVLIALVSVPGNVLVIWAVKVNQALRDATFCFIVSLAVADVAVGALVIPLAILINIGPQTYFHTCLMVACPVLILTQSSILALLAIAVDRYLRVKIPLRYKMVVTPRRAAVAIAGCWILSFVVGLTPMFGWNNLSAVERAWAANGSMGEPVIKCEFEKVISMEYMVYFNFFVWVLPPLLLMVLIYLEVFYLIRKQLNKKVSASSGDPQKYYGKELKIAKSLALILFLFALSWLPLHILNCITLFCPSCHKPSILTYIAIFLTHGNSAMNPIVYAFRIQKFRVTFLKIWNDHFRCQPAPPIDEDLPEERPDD

Neutrophil elastase = target: T4, Neutrophil elastase (Homo sapiens, UniProt P08246); format: tissue-based
T4 sequence (P08246 whole entry): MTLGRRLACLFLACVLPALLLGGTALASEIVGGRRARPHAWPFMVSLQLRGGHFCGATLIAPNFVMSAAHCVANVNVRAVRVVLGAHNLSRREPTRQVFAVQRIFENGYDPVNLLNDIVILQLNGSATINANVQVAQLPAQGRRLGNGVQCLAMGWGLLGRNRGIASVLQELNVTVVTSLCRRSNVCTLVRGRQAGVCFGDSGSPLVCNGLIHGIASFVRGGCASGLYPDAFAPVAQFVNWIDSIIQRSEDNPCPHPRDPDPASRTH

[5] = target: T5, 5-hydroxytryptamine receptor 2C (Homo sapiens, UniProt P28335); assay: DRUGMATRIX: Serotonin (5-Hydroxytryptamine) 5-HT2C radioligand binding (ligand: [3H] Mesulergine); format: cell membranes, CHO-K1, Membrane; details: cho-k1; Not Active = under 50% inhibition at 10 µM
T5 sequence (P28335 whole entry): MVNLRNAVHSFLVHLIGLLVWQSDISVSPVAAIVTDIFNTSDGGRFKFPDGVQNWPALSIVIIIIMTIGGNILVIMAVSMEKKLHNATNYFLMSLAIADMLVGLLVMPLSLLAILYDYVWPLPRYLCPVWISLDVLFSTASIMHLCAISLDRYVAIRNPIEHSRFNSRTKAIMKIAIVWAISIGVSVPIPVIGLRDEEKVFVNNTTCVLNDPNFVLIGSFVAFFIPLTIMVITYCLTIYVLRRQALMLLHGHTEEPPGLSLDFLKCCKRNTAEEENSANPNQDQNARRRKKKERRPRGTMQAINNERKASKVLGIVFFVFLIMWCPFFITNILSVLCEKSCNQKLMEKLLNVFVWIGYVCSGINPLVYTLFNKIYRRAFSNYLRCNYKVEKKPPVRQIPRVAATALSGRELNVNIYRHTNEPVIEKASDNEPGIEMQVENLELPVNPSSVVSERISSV

[6] = target: Tyrosine-protein kinase Lck (Homo sapiens, UniProt P06239); assay: DRUGMATRIX: Protein Tyrosine Kinase, LCK enzyme inhibition (substrate: Poly(Glu:Tyr)); format: cell-based, Insect cells; details: insect cells; Not Active = under 50% inhibition at 10 µM
Tyrosine-protein kinase Lck, sequence (P06239 whole entry): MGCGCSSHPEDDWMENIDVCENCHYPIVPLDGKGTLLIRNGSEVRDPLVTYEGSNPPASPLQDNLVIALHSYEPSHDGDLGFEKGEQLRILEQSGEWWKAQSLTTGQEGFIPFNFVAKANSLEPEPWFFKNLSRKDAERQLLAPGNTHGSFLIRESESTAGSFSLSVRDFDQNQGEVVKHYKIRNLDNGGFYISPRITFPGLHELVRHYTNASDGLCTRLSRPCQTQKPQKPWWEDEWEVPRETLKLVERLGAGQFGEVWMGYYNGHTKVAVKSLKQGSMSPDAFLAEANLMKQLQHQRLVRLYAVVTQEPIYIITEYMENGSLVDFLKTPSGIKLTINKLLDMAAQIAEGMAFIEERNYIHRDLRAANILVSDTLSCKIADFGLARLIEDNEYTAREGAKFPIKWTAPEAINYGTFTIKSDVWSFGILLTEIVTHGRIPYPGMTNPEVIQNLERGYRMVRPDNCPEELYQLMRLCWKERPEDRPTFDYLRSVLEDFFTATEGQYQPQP

Glycine receptor = Glycine receptor (Rattus norvegicus, UniProt P22771+P24524+P07727+P20781); format: cell membranes, Wistar, Spinal cord, Membrane; also: in other assays of this panel Not Active means under 50% inhibition at 10 µM

NC(=O)c1ccccc1O [SALICYLAMIDE]
Not Active: IC50 [1] | Ki [1] | IC50 [2] | Ki [2] | IC50 (Substance-P receptor) | IC50 (Acetylcholinesterase) | IC50 [3] | Ki [3] | IC50 (Melanocortin receptor 5) | IC50 (Cathepsin G) | IC50 [4] | IC50 (Adenosine receptor A1) | IC50 (Neutrophil elastase) | IC50 [5] | IC50 [6] | IC50 (Glycine receptor)

Cc1ncc([N+](=O)[O-])n1CC(C)O (centres undefined) [SECNIDAZOLE]
Not Active: IC50 [1] | Ki [1] | IC50 [2] | Ki [2] | IC50 (Substance-P receptor) | IC50 (Acetylcholinesterase) | IC50 [3] | Ki [3] | IC50 (Melanocortin receptor 5) | IC50 (Cathepsin G) | IC50 [4] | IC50 (Adenosine receptor A1) | IC50 (Neutrophil elastase) | IC50 [5] | IC50 [6] | IC50 (Glycine receptor)

CN[C@@H]1[C@@H](O)[C@@H](O[C@@H]2[C@@H](O)[C@H](O[C@H]3OC(CN)=CC[C@H]3N)[C@@H](N)C[C@H]2N)OC[C@]1(C)O [SISOMICIN]
Not Active: IC50 [1] | Ki [1] | IC50 [2] | Ki [2] | IC50 (Substance-P receptor) | IC50 (Acetylcholinesterase) | IC50 [3] | Ki [3] | IC50 (Melanocortin receptor 5) | IC50 (Cathepsin G) | IC50 [4] | IC50 (Adenosine receptor A1) | IC50 (Neutrophil elastase) | IC50 [5] | IC50 [6] | IC50 (Glycine receptor)

CC(=O)S[C@@H]1CC2=CC(=O)CC[C@]2(C)[C@H]2CC[C@@]3(C)[C@@H](CC[C@@]34CCC(=O)O4)[C@H]12 [SPIRONOLACTONE]
Not Active: IC50 [1] | Ki [1] | IC50 [2] | Ki [2] | IC50 (Substance-P receptor) | IC50 (Acetylcholinesterase) | IC50 [3] | Ki [3] | IC50 (Melanocortin receptor 5) | IC50 (Cathepsin G) | IC50 [4] | IC50 (Adenosine receptor A1) | IC50 (Neutrophil elastase) | IC50 [5] | IC50 [6] | IC50 (Glycine receptor)

C[C@]12Cc3c[nH]nc3C[C@@H]1CC[C@@H]1[C@@H]2CC[C@@]2(C)[C@H]1CC[C@]2(C)O [STANOZOLOL]
Not Active: IC50 [1] | Ki [1] | IC50 [2] | Ki [2] | IC50 (Substance-P receptor) | IC50 (Acetylcholinesterase) | IC50 [3] | Ki [3] | IC50 (Melanocortin receptor 5) | IC50 (Cathepsin G) | IC50 [4] | IC50 (Adenosine receptor A1) | IC50 (Neutrophil elastase) | IC50 [5] | IC50 [6] | IC50 (Glycine receptor)

CN(N=O)C(=O)N[C@@H](C=O)[C@@H](O)[C@H](O)[C@H](O)CO [STREPTOZOCIN]
Not Active: IC50 [1] | Ki [1] | IC50 [2] | Ki [2] | IC50 (Substance-P receptor) | IC50 (Acetylcholinesterase) | IC50 [3] | Ki [3] | IC50 (Melanocortin receptor 5) | IC50 (Cathepsin G) | IC50 [4] | IC50 (Adenosine receptor A1) | IC50 (Neutrophil elastase) | IC50 [5] | IC50 [6] | IC50 (Glycine receptor)

Cc1cc(NS(=O)(=O)c2ccc(N)cc2)no1 [SULFAMETHOXAZOLE]
Not Active: IC50 [1] | Ki [1] | IC50 [2] | Ki [2] | IC50 (Substance-P receptor) | IC50 (Acetylcholinesterase) | IC50 [3] | Ki [3] | IC50 (Melanocortin receptor 5) | IC50 (Cathepsin G) | IC50 [4] | IC50 (Adenosine receptor A1) | IC50 (Neutrophil elastase) | IC50 [5] | IC50 [6] | IC50 (Glycine receptor)

Nc1ccc(S(N)(=O)=O)cc1 [SULFANILAMIDE]
Not Active: IC50 [1] | Ki [1] | IC50 [2] | Ki [2] | IC50 (Substance-P receptor) | IC50 (Acetylcholinesterase) | IC50 [3] | Ki [3] | IC50 (Melanocortin receptor 5) | IC50 (Cathepsin G) | IC50 [4] | IC50 (Adenosine receptor A1) | IC50 (Neutrophil elastase) | IC50 [5] | IC50 [6] | IC50 (Glycine receptor)

Nc1ccc(S(=O)(=O)Nc2ccnn2-c2ccccc2)cc1 [SULFAPHENAZOLE]
Not Active: IC50 [1] | Ki [1] | IC50 [2] | Ki [2] | IC50 (Substance-P receptor) | IC50 (Acetylcholinesterase) | IC50 [3] | Ki [3] | IC50 (Melanocortin receptor 5) | IC50 (Cathepsin G) | IC50 [4] | IC50 (Adenosine receptor A1) | IC50 (Neutrophil elastase) | IC50 [5] | IC50 [6] | IC50 (Glycine receptor)
